Patent US20240309389A1, “Chimeric FCeRI a-Chain Gene, Chimeric FCeRI a-Chain Protein, Cells, Analysis Kit and Analysis Method” (TEIKYO HEISEI UNIVERSITY, priority 2021, published 2024)

Legend:
Type in all cases: cell-based, rat
RBL-NL4 cells = test: Luciferase expression on stimulation in RBL-NL4 cells; settings: unsensitized, 250 μM, 37° C., 3 hours
Method: Luciferase expression of when stimulated with ionomycin, anti-human IgE antibody, or specific antigen is confirmed for each of cultures obtained by culturing the seven clones obtained in (2) above and RBL-NL4 cells. Specifically, the confirmation was carried out as follows.
On the day before the test for confirming luciferase expression when the stimulus was applied, the following operations were performed. […] The medium was placed in each well of a white 96-well plate made of plastic with a transparent bottom (product number: 165306, Thremo). Cells of each clone were then seeded at 5×10^4 cells/50 μL per well, and allowed to stand overnight in an incubator for sensitization. […]
After applying the stimulation, 50 μL/well of a substrate solution (One-Glo Luciferase Assay System, Promega) was added to each well and allowed to react for 5 minutes, and then the luminescence intensity was measured using a luminometer (GloMax, Promega).
In FIG. 7, black dots indicate the measured luciferase luminescence intensity (unit: CPS) (right axis: LUMINESCENCE (CPS)). […] The relative luminescence intensity is the relative luminescence intensity when the luminescence intensity of each clone when unstimulated is set to 1, and is shown on a log scale.

HuRa-40 cells = test: IgE crosslinking-induced luciferase expression, inhibitor evaluation in HuRa-40 cells
Method: (§1) HuRa-40 cells and RS-ATL8 cells were prepared.
(§2) After washing the sensitized cells with PBS three times, […] was added and stimulated at 37° C. for 3 hours.
(§3) After the stimulation time had elapsed, Bright-Glo (Promega) substrate solution was added to each well in an amount of 50 μL/well, and reacted for 5 minutes at room temperature while shielding from light. After that, the luminescence intensity was measured with a microplate reader (GloMax, Promega).
(§4) A study similar to that described above was performed with cyclosporin A instead of omalizumab. Specifically, RS-ATL8 cells or HuRa-40 cells were added with cyclosporin A at a final concentration of 0 to 1 μg/mL, and, 30 minutes later, 50 ng/ml of human IgE was added to sensitize them overnight. After washing with PBS three times, the cells were stimulated with an anti-human IgE antibody for 3 hours, and Bright-Glo was added to measure luminescence.

RS-ATL8 cells = test: IgE crosslinking-induced luciferase expression, inhibitor evaluation in RS-ATL8 cells
Method: as §1, §2, §3, §4

[1] = drug added 30 min before 50 ng/ml human IgE overnight sensitization, anti-human IgE stimulation 3 h, read from FIG. 17
[2] = omalizumab 100 μg/mL, fraction of the 0 μg/mL value

C[C@H](CCC(=O)O)C[C@H](C)C[C@H](C)C(=O)/C=C(\O)[C@H](C)C[C@H](C)C/C=C/[C@@H](C)[C@@H](O)[C@@H](C)[C@@H](O)C[C@@H]1CC[C@@](C)([C@H]2CC[C@@](C)([C@@H](C)O)O2)O1 [ionomycin]
luciferase expression level compared to anti-human IgE antibody stimulation (no IgE and aIgE) (RBL-NL4 cells): greatly increased

Omalizumab
change of luminescence intensity, concentration increased from 0.1 μg/mL to 1 μg/mL (HuRa-40 cells): significant decrease in luminescence intensity
50% inhibitory concentration (IC50) (HuRa-40 cells; [1]): less than 1 μg/mL
luminescence intensity at 100 μg/mL compared to 0 μg/mL (HuRa-40 cells; [2]): less than 1/30
change of luminescence intensity, concentration increased from 0.1 μg/mL to 1 μg/mL (RS-ATL8 cells): decreased slightly
change of luminescence intensity, concentration increased from 1 μg/mL to 10 μg/mL (RS-ATL8 cells): further decreased
50% inhibitory concentration (IC50) (RS-ATL8 cells; [1]): greater than 1 μg/mL
luminescence intensity at 100 μg/mL compared to 0 μg/mL (RS-ATL8 cells; [2]): about ¼
